The numbers were not newly measured in patent US20090232888A1, “SUSTAINED DELIVERY OF ANTIBIOTICS” (ORIENT PHARMA, priority 2008, published 2009), which cites them from elsewhere.

The conditions of data set [1]: solution, 4° C., shelf-life based on 90% residual potency.

Molecules are shown by their SMILES.

On to `CN[C@H](CC(C)C)C(=O)N[C@H]1C(=O)N[C@@H](CC(N)=O)C(=O)N[C@H]2C(=O)N[C@H]3C(=O)N[C@H](C(=O)N[C@H](C(=O)O)c4cc(O)cc(O)c4-c4cc3ccc4O)[C@H](O)c3ccc(c(Cl)c3)Oc3cc2cc(c3O[C@@H]2O[C@H](CO)[C@@H](O)[C@H](O)[C@H]2O[C@H]2C[C@](C)(N)[C@H](O)[C@H](C)O2)Oc2ccc(cc2Cl)[C@H]1O` [vancomycin], for which the oral bioavailability result is reported as “negligible”. Moreover, the “time vancomycin solutions were stable (shelf-life of 90% residual potency)” value in data set [1] is on record as “at least 58 days”.
